# Measured values taken from patent US9745305B2, “Modulators of methyl modifying enzymes, compositions and uses thereof” (Constellation Pharmaceuticals, Inc., priority 2013, dated 2017).
# Key:
# [1] = test system: H3K27me3 mark in Hela cells expressing wild type EZH2; assay: H3K27me3 Alpha Hela Assay (AlphaLISA); format: cell-based; conditions: Homo sapiens, 72 hrs, read-out: H3K27me3_Alpha_HeLa (EC50)
# Method in brief: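 HeLa cells (1,000/well) were exposed 72 h at 37 °C to ten 3-fold compound dilutions. H3K27me3 was then measured by AlphaLISA after histone lysis/extraction, using anti-K27me3 acceptor beads, biotinylated anti-H3 and streptavidin donor beads. Signals were normalized to DMSO and fitted to dose-response curves; a duplicate plate measured viability.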
# [2] = molecular target: Y641N EZH2 (Homo sapiens, UniProt Q15910, Y641N); assay: Assay for Y641N EZH2 (as the EZH2 assay, H3K27Me2 oligonucleosomes as substrate); format: biochemical; conditions: Y641N EZH2 mutant, reconstituted H3K27Me2 oligonucleosomes as substrate
# Chain of Y641N EZH2 (Q15910 whole entry Y641N): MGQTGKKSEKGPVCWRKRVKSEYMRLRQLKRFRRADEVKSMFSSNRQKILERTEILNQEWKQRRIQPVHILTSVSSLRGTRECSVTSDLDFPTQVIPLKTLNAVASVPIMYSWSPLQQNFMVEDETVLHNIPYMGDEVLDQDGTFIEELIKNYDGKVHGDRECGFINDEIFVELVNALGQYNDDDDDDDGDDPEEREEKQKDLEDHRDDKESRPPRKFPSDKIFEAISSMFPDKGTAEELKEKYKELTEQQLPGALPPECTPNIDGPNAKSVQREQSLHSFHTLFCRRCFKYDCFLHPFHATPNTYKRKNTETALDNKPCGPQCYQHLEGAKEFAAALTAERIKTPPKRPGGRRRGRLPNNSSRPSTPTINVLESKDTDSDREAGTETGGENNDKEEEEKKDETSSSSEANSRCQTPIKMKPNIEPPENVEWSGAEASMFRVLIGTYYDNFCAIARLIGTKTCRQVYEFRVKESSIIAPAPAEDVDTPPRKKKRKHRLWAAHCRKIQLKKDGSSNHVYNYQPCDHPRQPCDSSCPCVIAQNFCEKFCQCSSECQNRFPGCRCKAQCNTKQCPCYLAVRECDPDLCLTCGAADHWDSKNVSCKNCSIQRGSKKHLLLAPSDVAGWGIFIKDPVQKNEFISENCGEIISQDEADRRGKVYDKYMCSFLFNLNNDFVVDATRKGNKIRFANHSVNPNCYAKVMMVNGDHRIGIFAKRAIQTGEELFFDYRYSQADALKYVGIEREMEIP
# Chain of Y641N EZH2 (O75530 whole entry partner): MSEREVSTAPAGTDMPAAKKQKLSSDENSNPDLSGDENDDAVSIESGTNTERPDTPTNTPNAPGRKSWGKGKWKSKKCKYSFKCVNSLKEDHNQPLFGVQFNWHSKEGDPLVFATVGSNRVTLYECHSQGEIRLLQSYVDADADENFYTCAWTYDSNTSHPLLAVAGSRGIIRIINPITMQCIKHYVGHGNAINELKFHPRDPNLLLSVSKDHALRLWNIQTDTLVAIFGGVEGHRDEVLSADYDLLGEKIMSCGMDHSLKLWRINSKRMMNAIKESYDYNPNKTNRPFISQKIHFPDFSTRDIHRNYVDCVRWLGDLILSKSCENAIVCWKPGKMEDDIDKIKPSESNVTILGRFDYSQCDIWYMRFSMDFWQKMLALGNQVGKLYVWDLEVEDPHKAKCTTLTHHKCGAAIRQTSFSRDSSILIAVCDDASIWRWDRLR
# Chain of Y641N EZH2 (Q15022 whole entry partner): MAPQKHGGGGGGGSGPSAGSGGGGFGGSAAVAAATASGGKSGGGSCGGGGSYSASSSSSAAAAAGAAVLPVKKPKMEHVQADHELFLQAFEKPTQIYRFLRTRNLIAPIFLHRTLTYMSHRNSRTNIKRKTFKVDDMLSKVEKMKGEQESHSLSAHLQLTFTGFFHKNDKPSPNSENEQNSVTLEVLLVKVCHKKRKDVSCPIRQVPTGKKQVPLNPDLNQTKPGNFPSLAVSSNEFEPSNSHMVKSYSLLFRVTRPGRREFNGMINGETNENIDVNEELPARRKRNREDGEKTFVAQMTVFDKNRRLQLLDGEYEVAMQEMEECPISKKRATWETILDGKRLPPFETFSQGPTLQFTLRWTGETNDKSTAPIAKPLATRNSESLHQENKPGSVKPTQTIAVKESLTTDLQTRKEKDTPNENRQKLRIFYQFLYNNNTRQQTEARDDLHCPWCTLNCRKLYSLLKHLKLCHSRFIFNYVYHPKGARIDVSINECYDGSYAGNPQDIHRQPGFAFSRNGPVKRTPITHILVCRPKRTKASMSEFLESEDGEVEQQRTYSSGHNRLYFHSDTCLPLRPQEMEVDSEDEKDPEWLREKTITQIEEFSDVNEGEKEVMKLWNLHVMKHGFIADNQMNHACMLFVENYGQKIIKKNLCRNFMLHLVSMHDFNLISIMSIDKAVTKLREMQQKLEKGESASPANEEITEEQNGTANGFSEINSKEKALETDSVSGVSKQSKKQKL
# Method in brief: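 rPRC2 (2 nM EZH2) with 0.2 μM reconstituted H3K27Me2 biotinylated oligonucleosomes, 3.6 μM H3K27me3 peptide, 0.2 μM ^3H SAM in Tris pH 8.5; compounds (80 to 0.16 μM, 2-fold) pre-incubated 20 min, reaction 60 min, SAH/EDTA quench. Tritiated product captured on streptavidin plates, scintillation counted; IC50 from 4-parameter fit.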
EC50 [1],IC50 [2],SMILES
< 400 nM,< 100 nM,"COc1cc(C)[nH]c(=O)c1CNC(=O)c1c(C)c(C(C)c2ccccc2)n2ncccc12 (racemic) [Compound 101, (±)-N-((4-methoxy-6-methyl-2-oxo-1,2-dihydropyridin-3-yl)methyl)-6-methyl-7-(1-phenylethyl)pyrrolo[1,2-b]pyridazine-5-carboxamide]"
< 400 nM,< 100 nM,"COc1cc(C)[nH]c(=O)c1CNC(=O)c1c(C)c(C(C)C2CCOCC2)n2ncccc12 (racemic) [Compound 116, (±)-N-((4-methoxy-6-methyl-2-oxo-1,2-dihydropyridin-3-yl)methyl)-6-methyl-7-(1-(tetrahydro-2H-pyran-4-yl)ethyl)pyrrolo[1,2-b]pyridazine-5-carboxamide]"
< 400 nM,< 100 nM,"COc1cc(C)[nH]c(=O)c1CNC(=O)c1c(C)c(C(C)c2ccccc2)n2ncccc12 (single isomer, unassigned) [Compound 105, (R or S)-N-((4-methoxy-6-methyl-2-oxo-1,2-dihydropyridin-3-yl)methyl)-6-methyl-7-(1-phenylethyl)pyrrolo[1,2-b]pyridazine-5-carboxamide]"
